This note sets out measurements from PubChem BioAssay (NCI).

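Briefly, cells in 96-well plates were exposed to five compound concentrations for 48 h, and endpoints were estimated by linear interpolation. GI50: concentration for 50% inhibition of growth. TGI denotes the concentration required for complete inhibition of growth.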 Where a SMILES comes first, the peptide text is derived from it. [ ]: non-standard residue; d: D form. pGlu = O=C1CC[CH](C(=O)O)N1

Among the test systems are A498 renal; EKVX NSCLC; IGROV1 ovarian; M14 melanoma; OVCAR-3 ovarian; SF-295 CNS; SK-MEL-28 melanoma; SK-MEL-5 melanoma; SK-OV-3 ovarian; TK-10 renal.
Test in all cases: NCI tumour cell line growth inhibition, 48 h

For `COC1=C(N)C(=O)c2nc(C)ccc2C1=O`, the TGI turned out to be 3.57 µM in the experiment on A498 renal; 6.85 µM in the experiment with EKVX NSCLC; 23.3 µM in the experiment on IGROV1 ovarian; 3.33 µM in the experiment on M14 melanoma; 3.65 µM with OVCAR-3 ovarian; 3.18 µM in the experiment with SF-295 CNS. The TGI came out at 3.27 µM in the experiment on SK-MEL-28 melanoma, 3.09 µM in the experiment with SK-MEL-5 melanoma, 38.4 µM in the experiment with SK-OV-3 ovarian and 16.4 µM in the experiment with TK-10 renal.
Turning to `Cc1nnn[n-]1.N.N.N.N.N.[Cl-].[Co+3]`, the GI50 in the experiment on A498 renal was 4.14 µM; in the experiment with EKVX NSCLC, > 100 µM; in the experiment on IGROV1 ovarian, 2.88 µM; with M14 melanoma it was > 100 µM; in the experiment on OVCAR-3 ovarian it was > 100 µM; in the experiment with SF-295 CNS, > 100 µM. Moreover, the GI50 in the experiment on SK-MEL-28 melanoma was > 100 µM; with SK-MEL-5 melanoma, 1.86 µM; with SK-OV-3 ovarian, > 100 µM; in the experiment with TK-10 renal, > 100 µM. Besides, the TGI with A498 renal is 72 µM; in the experiment on EKVX NSCLC, > 100 µM; in the experiment on IGROV1 ovarian it was 85 µM; in the experiment with M14 melanoma it was > 100 µM; in the experiment on OVCAR-3 ovarian it was > 100 µM; with SF-295 CNS it was > 100 µM. In addition, the TGI was > 100 µM with SK-MEL-28 melanoma, 10.7 µM in the experiment on SK-MEL-5 melanoma, > 100 µM with SK-OV-3 ovarian and > 100 µM in the experiment on TK-10 renal.
Consider `COC(=O)CC1C[C@H](C#N)N(C(=O)c2ccccc2)C[C@@H]1CC[N+](=O)[O-]` (some centres undefined), for which the TGI with A498 renal, in the experiment on EKVX NSCLC, in the experiment on IGROV1 ovarian, with M14 melanoma, in the experiment with OVCAR-3 ovarian and in the experiment with SF-295 CNS was > 100 µM in each case. The TGI in the experiment with SK-MEL-28 melanoma, in the experiment on SK-MEL-5 melanoma, in the experiment with SK-OV-3 ovarian and with TK-10 renal was > 100 µM in each case.
Turning to `CCOC(=O)N1CCN(/[N+]([O-])=N/Oc2ccc([N+](=O)[O-])cc2[N+](=O)[O-])CC1`, the GI50 in the experiment with A498 renal is 17.5 µM; with EKVX NSCLC it was 12.6 µM; with IGROV1 ovarian, 9.04 µM; with M14 melanoma it was 0.328 µM; with OVCAR-3 ovarian, 0.542 µM; with SF-295 CNS, 1.73 µM. The GI50 was 1.82 µM with SK-MEL-28 melanoma, 2.77 µM in the experiment with SK-MEL-5 melanoma, 5.61 µM in the experiment on SK-OV-3 ovarian and 0.406 µM in the experiment on TK-10 renal. Further, the TGI was found to be 35.6 µM with A498 renal; 32.6 µM in the experiment with EKVX NSCLC; 30.2 µM in the experiment with IGROV1 ovarian; 1.43 µM in the experiment on M14 melanoma; 1.82 µM in the experiment on OVCAR-3 ovarian; 4.56 µM with SF-295 CNS. The TGI came out at 6.69 µM with SK-MEL-28 melanoma, 12.1 µM with SK-MEL-5 melanoma, 18.4 µM in the experiment on SK-OV-3 ovarian and 5.57 µM with TK-10 renal.
As for `CS(=O)(=O)OC1CCC2(C#N)CCC1C2=O` (centres undefined), the TGI in the experiment with A498 renal, in the experiment on EKVX NSCLC, in the experiment on IGROV1 ovarian, in the experiment with M14 melanoma, with OVCAR-3 ovarian and in the experiment on SF-295 CNS was > 100 µM throughout. In addition, the TGI with SK-MEL-28 melanoma, in the experiment on SK-MEL-5 melanoma, with SK-OV-3 ovarian and with TK-10 renal was > 100 µM throughout.
`CCNC(=O)C1CCCN1C(=O)C(CCCN=C(N)N)NC(=O)C(CC(C)C)NC(=O)C(CC(C)C)NC(=O)C(Cc1ccc(O)cc1)NC(=O)C(CO)NC(=O)C(Cc1c[nH]c2ccccc12)NC(=O)C(Cc1cnc[nH]1)NC(=O)C1CCC(=O)N1` (centres undefined) ([pGlu]HWSYLLRP-NHEt; configuration not given here): the GI50 in the experiment with A498 renal, in the experiment with EKVX NSCLC, in the experiment on IGROV1 ovarian, with M14 melanoma, in the experiment on OVCAR-3 ovarian and in the experiment on SF-295 CNS was > 100 µM throughout. The GI50 with SK-MEL-28 melanoma, with SK-MEL-5 melanoma, in the experiment on SK-OV-3 ovarian and in the experiment with TK-10 renal was > 100 µM each time. Also, the TGI in the experiment with A498 renal, with EKVX NSCLC, in the experiment with IGROV1 ovarian, in the experiment with M14 melanoma, with OVCAR-3 ovarian and with SF-295 CNS was > 100 µM throughout. Besides, the TGI in the experiment on SK-MEL-28 melanoma, in the experiment on SK-MEL-5 melanoma, in the experiment on SK-OV-3 ovarian and in the experiment with TK-10 renal was > 100 µM each time.
As to `O=C(CCCCCCNC(=O)c1cnc(N(c2ccccc2)c2ccccc2)nc1)NO`, the GI50 in the experiment on A498 renal is 2.5 µM; in the experiment on EKVX NSCLC, 4.95 µM; in the experiment with IGROV1 ovarian it was 3.2 µM; in the experiment on M14 melanoma, 3.57 µM; with OVCAR-3 ovarian, 2.71 µM; in the experiment with SF-295 CNS, 2.95 µM. For the same compound, the GI50 was 3.41 µM in the experiment on SK-MEL-28 melanoma, 1.82 µM in the experiment with SK-MEL-5 melanoma, 3.25 µM in the experiment on SK-OV-3 ovarian and 2.07 µM in the experiment with TK-10 renal. For the same compound, the TGI in the experiment on A498 renal was 14.8 µM; with EKVX NSCLC, > 100 µM; with IGROV1 ovarian, 16.6 µM; in the experiment with M14 melanoma, > 100 µM; in the experiment on OVCAR-3 ovarian, 15.3 µM; with SF-295 CNS, 10.8 µM. Besides, the TGI was found to be 33.3 µM in the experiment on SK-MEL-28 melanoma, 5.48 µM with SK-MEL-5 melanoma, 23.8 µM in the experiment on SK-OV-3 ovarian and 12.5 µM in the experiment on TK-10 renal.
For the compound `CCN(Cc1cc(Nc2nc(C)cn3c(-c4cn[nH]c4)cnc23)sn1)C(C)(C)CO`, the GI50 is < 0.01 µM in the experiment on A498 renal; 0.578 µM with EKVX NSCLC; 0.0257 µM in the experiment on IGROV1 ovarian; 0.0421 µM in the experiment with M14 melanoma; 0.0481 µM in the experiment with OVCAR-3 ovarian; 0.0468 µM with SF-295 CNS. The GI50 with SK-MEL-28 melanoma is 1.41 µM; in the experiment on SK-MEL-5 melanoma it was 0.222 µM; in the experiment on SK-OV-3 ovarian, 0.0241 µM; in the experiment on TK-10 renal it was 0.0507 µM. Besides, the TGI in the experiment with A498 renal stood at 0.0163 µM; in the experiment on EKVX NSCLC, 15.2 µM; in the experiment with IGROV1 ovarian, 12.9 µM; in the experiment on M14 melanoma, 2.84 µM; in the experiment with OVCAR-3 ovarian, 2.68 µM; in the experiment on SF-295 CNS, 3.36 µM. Also, the TGI with SK-MEL-28 melanoma turned out to be 14.7 µM; with SK-MEL-5 melanoma it was 2.08 µM; in the experiment on SK-OV-3 ovarian it was 3.38 µM; in the experiment on TK-10 renal, 2.24 µM.
Consider `CN(O)C(=O)SCC(NC(=O)CCC(N)C(=O)O)C(=O)NCC(=O)O` (centres undefined), for which the GI50 in the experiment with A498 renal, with EKVX NSCLC, with IGROV1 ovarian, with M14 melanoma, in the experiment on OVCAR-3 ovarian and in the experiment on SK-MEL-28 melanoma was > 2000 µM throughout. Also, the GI50 in the experiment on SK-MEL-5 melanoma, in the experiment on SK-OV-3 ovarian and in the experiment on TK-10 renal was > 2000 µM each time. Besides, the TGI in the experiment with A498 renal is > 2000 µM; in the experiment on EKVX NSCLC, > 2000 µM; with IGROV1 ovarian, > 2000 µM; with M14 melanoma, > 2000 µM; in the experiment with OVCAR-3 ovarian it was > 2000 µM; with SF-295 CNS it was > 2 µM. Besides, the TGI with SK-MEL-28 melanoma, in the experiment with SK-MEL-5 melanoma, with SK-OV-3 ovarian and in the experiment on TK-10 renal was > 2000 µM in each case.
`COc1ccc(-c2nn(-c3cccc(Cl)c3)cc2-c2cc(-c3cccs3)[nH]c(=S)n2)cc1`: the GI50 is 3.01 µM in the experiment with A498 renal; 1.93 µM with EKVX NSCLC; 3.61 µM with IGROV1 ovarian; 2.81 µM in the experiment with M14 melanoma; 3.04 µM in the experiment with OVCAR-3 ovarian; 2.07 µM in the experiment with SF-295 CNS. Further, the GI50 in the experiment on SK-MEL-28 melanoma was 3.93 µM; with SK-MEL-5 melanoma, 2.93 µM; with SK-OV-3 ovarian, 5.91 µM; with TK-10 renal, 4.55 µM. Also, the TGI with A498 renal was 17 µM; with EKVX NSCLC, 21.7 µM; with IGROV1 ovarian, 15.3 µM; with M14 melanoma it was 14 µM; with OVCAR-3 ovarian, 9.42 µM; in the experiment on SF-295 CNS it was 7.09 µM. In addition, the TGI in the experiment on SK-MEL-28 melanoma was determined as 15.7 µM; in the experiment with SK-MEL-5 melanoma it was 10.9 µM; in the experiment on SK-OV-3 ovarian it was 36.8 µM; in the experiment on TK-10 renal, 32.8 µM.
Take `C=CCN=c1sc2c(n1NC(=O)c1cc3ccc1CCc1ccc(cc1)CC3)C(=O)c1ccccc1C2=O`: the GI50 in the experiment on A498 renal is 10.5 µM; in the experiment with EKVX NSCLC it was 1.39 µM; in the experiment with IGROV1 ovarian, 1.13 µM; with M14 melanoma, 1.63 µM; in the experiment with OVCAR-3 ovarian, 0.328 µM; in the experiment with SF-295 CNS it was 1.68 µM. Also, the GI50 was 1.87 µM with SK-MEL-28 melanoma, 1.41 µM with SK-MEL-5 melanoma, 3.7 µM in the experiment with SK-OV-3 ovarian and 4.48 µM with TK-10 renal. The TGI came to 47 µM in the experiment on A498 renal; 3.46 µM in the experiment on EKVX NSCLC; 3.21 µM in the experiment with IGROV1 ovarian; 3.3 µM in the experiment on M14 melanoma; 1.43 µM with OVCAR-3 ovarian; 3.08 µM in the experiment on SF-295 CNS. Besides, the TGI was determined as 3.35 µM in the experiment with SK-MEL-28 melanoma, 2.75 µM in the experiment on SK-MEL-5 melanoma, 23.4 µM in the experiment on SK-OV-3 ovarian and 8.14 µM with TK-10 renal.
Consider `O=C(Oc1cccc(F)c1OC(=O)c1cccc(O)c1)c1cccc(O)c1`, for which the GI50 is > 100 µM in the experiment on A498 renal; 58.7 µM with EKVX NSCLC; 7.47 µM in the experiment on IGROV1 ovarian; 34.1 µM with M14 melanoma; 4.82 µM with OVCAR-3 ovarian; 36.1 µM with SF-295 CNS. Moreover, the GI50 with SK-MEL-28 melanoma is 80.1 µM; in the experiment on SK-MEL-5 melanoma, 6.9 µM; with SK-OV-3 ovarian it was 84 µM; in the experiment on TK-10 renal, 98.6 µM. Further, the TGI in the experiment with A498 renal is > 100 µM; with EKVX NSCLC, > 100 µM; with IGROV1 ovarian it was > 100 µM; with M14 melanoma, > 100 µM; in the experiment on OVCAR-3 ovarian, 45.7 µM; with SF-295 CNS, > 100 µM. Besides, the TGI with SK-MEL-28 melanoma, in the experiment on SK-MEL-5 melanoma, in the experiment with SK-OV-3 ovarian and with TK-10 renal was > 100 µM in each case.
